Experimental data: US20180346879A1, “GENERATION OF MUSCLE-LINEAGE CLELS FROM STEM CELLS” (GENEA IP HOLDINGS PTY LIMITED, priority 2015, published 2018)

How the values were obtained:
Assay type in all cases: cell-based
[1] = test system: GENEA019 human embryonic stem cells; test: Myogenic induction with Wnt pathway modulators, Hoechst and Pax3 staining; settings: modulator 1 μM in medium with Y-27632 10 μM and Alk5 inhibitor 2 μM; 9 days
Protocol: GENEA019 human embryonic stem cells were plated in Skeletal Muscle Cell Basal Medium (Lonza) with Skeletal Muscle Cell Growth Supplement (Lonza) and horse serum (5%) supplemented with Y-27632 (10 μM) and Alk5 inhibitor (2 μM), and a series of Wnt pathway modulators, including CHIR99021 (1 μM), AZD1080 (1 μM), IWP-L6 (1 μM), D4476 (1 μM), and AT13148 (1 μM). After 9 days in culture, cells were fixed and stained for DNA (Hoechst) and Pax3.

[2] = test system: GENEA002, GENEA015, and GENEA019 human embryonic stem cell lines; test: Myogenic induction in MCDB media with optional THI, FGF2 or LRRK2-IN-1, Hoechst, Pax3 and Pax7 staining; settings: 4 days; for cell proliferation (FIGS. 15A-F) / yield of Pax3/7-positive cells (FIGS. 15A-F): 5 μm THI or 5 ng/L FGF2 added to MCDB media, collagen I
Protocol: GENEA002, GENEA015, and GENEA019 human embryonic stem cell lines were plated on collagen I-coated culture dishes in the following culture media:
4) MCDB FA ITS: same as MCDB FA with insulin/transferrin/selenium (ITS, 100×)
A control compound, 5 μm THI (2-acetyl-4(5)-(1,2,3,4-tetrahydroxybutyl)imidazole), or […] FGF2 was optionally added to the media. The LRRK2 inhibitor, LRRK2-IN-1 (1 μM), was optionally added to MCDB MinFA medium. Cells were fixed after 4 days and stained for DNA (Hoechst), Pax3 and Pax7.

[3] = test system: GENEA019 and GENEA067 human embryonic stem cells; test: Differentiation with continuous ROCK inhibition or with ROCK inhibitor removed after attachment; settings: Y-27632 (10 μM) removed one day after plating, compared with continuous presence
Protocol: Cells were either differentiated further in the same medium with media changes every other day, or one day after plating and after cells had attached, cells were changed to and maintained in the same culture medium but without the ROCK inhibitor, Y-27632 (10 μM).

[4] = test system: GENEA019 human embryonic stem cells; test: Myogenic induction with or without LRRK2-IN-1, Hoechst and Pax3 staining; settings: LRRK2-IN-1 1 μM added to medium with Y-27632, CHIR99021, Alk5 inhibitor; 9 days
From the text: (§1) After 9 days, cells were fixed and stained for DNA (Hoechst) and Pax3.

[5] = test system: GENEA015 and GENEA019 human embryonic stem cells; test: Kinase inhibitor dose range in myogenic induction, Hoechst and Pax7 staining; settings: dose range from 10 nM to 1 μM; 4 days; medium with Y-27632, CHIR99021, Alk5 inhibitor
Protocol: In addition to LRRK2-IN-1, various other kinase inhibitors were tested in a dose range from 10 nM to 1 μM. Cells were fixed after 4 days and stained for DNA (Hoechst) and Pax7.

[6] = test system: GENEA019 and GENEA067 human embryonic stem cell lines; test: Myogenic induction with or without LRRK2-IN-1, phase contrast microscopy; settings: LRRK2-IN-1 1 μM, suppresses flat contaminating cells with large cytoplasms
From the text: as §1
The same experiment was repeated using GENEA019 and GENEA067 human embryonic stem cell lines. Cell populations were observed by phase contrast microscopy.

[7] = test system: GENEA019 human embryonic cells; test: Myogenic induction on extracellular matrix molecules (collagen I, laminins), Hoechst and Pax7 staining; settings: plate coating; medium with Y-27632 10 μM, CHIR99021 3 μM, Alk5 inhibitor 2 μM; 9 days
From the text: After 9 days, cells were fixed and stained for DNA (Hoechst) and Pax7.

**Q.** `Cc1c[nH]c(-c2cnc(NCCNc3ccc(C#N)cn3)nc2-c2ccc(Cl)cc2Cl)n1` [CHIR99021] was tested. Which “myogenic induction / Pax3-positive cells (FIGS. 17A and 17B)” value (“myogenic induction / Pax3-positive cells” for short) [1] did it give?
**A.** promoted myogenic induction and resulted in Pax3-positive cells

**Q.** For `CC(=O)c1ncc(C(O)C(O)C(O)CO)[nH]1` (stereo not shown) [THI, 2-acetyl-4(5)-(1,2,3,4-tetrahydroxybutyl)imidazole], which “cell proliferation (FIGS. 15A-F)” value [2] is on record?
**A.** neither THI nor FGF2 enhanced

**Q.** What about the “yield of Pax3/7-positive cells (FIGS. 15A-F)” value [2] of the same compound?
**A.** neither THI nor FGF2 enhanced

**Q.** Which “myogenic induction / Pax3-positive cells” value [1] does the source give for `N#Cc1ccc2[nH]c(O)c(-c3ccc(CN4CCOCC4)cn3)c2c1` [AZD1080] here?
**A.** promoted myogenic induction and resulted in Pax3-positive cells

**Q.** Which “cell proliferation (FIGS. 15A-F)” value [2] does the source give for “FGF2: fibroblast growth factor family member” here?
**A.** neither THI nor FGF2 enhanced

**Q.** And the “yield of Pax3/7-positive cells (FIGS. 15A-F)” value [2]?
**A.** neither THI nor FGF2 enhanced

**Q.** How did the “cell growth without continuous ROCK inhibition (FIG. 18)” value [3] turn out when `C[C@@H](N)[C@H]1CC[C@H](C(=O)Nc2ccncc2)CC1` [Y-27632] was run?
**A.** significantly growth retarded

**Q.** And the “cell population homogeneity during differentiation without continuous ROCK inhibition” value [3]?
**A.** highly heterogeneous cell populations

**Q.** How did the “myogenic induction / Pax3-positive cells” value [1] turn out when `O=C(CSc1nc2c(c(=O)n1-c1ccccc1)SCC2)Nc1ccc(-c2ccccc2)cn1` [IWP-L6] was run?
**A.** blocked myogenic induction

**Q.** Which results are given for `COc1cc(C(=O)N2CCC(N3CCN(C)CC3)CC2)ccc1Nc1ncc2c(n1)N(C)c1ccccc1C(=O)N2C` [LRRK2-IN-1]?
**A.** cell proliferation (FIG. 13A) [4]: promoted cell proliferation; expression of Pax3 (FIG. 13B) [4]: increased expression of Pax3; formation of Pax7-positive cells (FIGS. 16A and 16B) [5]: strongly promoted the formation of Pax7-positive cells in a dose-dependent manner; purity of cell populations (FIG. 14) [6]: purer cell populations; proportion of Pax3-positive and Pax7-positive cells (FIGS. 15A-F) ([2]; LRRK2-IN-1 1 μM added to MCDB MinFA medium): strong increase

**Q.** For “laminin 521: extracellular matrix molecule coating tissue culture plates”, which “Pax7-positive satellite-like cell sub population (FIG. 12A)” value [7] is on record?
**A.** favor a satellite-like cell sub population that is Pax7-positive

**Q.** What about the “cell proliferation (FIG. 12B)” value [7] of the same compound?
**A.** promote cell proliferation
